# Results reported in the Deep4Chem optical property database.
# Assay: photoluminescence quantum yield (fraction); solvent given as SMILES
compound,measurement,setting,value
O=C1/C(=C2\Sc3ccc(S(=O)(=O)Cl)cc3C2=O)Sc2ccc(S(=O)(=O)Cl)cc21,photoluminescence quantum yield,in C1COCCO1,0.949
same,photoluminescence quantum yield,in CS(C)=O,0.012
COC(=O)C1=C(C(=O)OC)C2(c3ccccc3-c3ccccc32)[C@@H](c2ccc(C)cc2)C=C2c3cc(OC)c(OC)cc3CCN21,photoluminescence quantum yield,in ClCCl,0.00491
CN(C)c1ccc2nc(-c3ccc(C(=O)O)cc3)sc2c1,photoluminescence quantum yield,in C1CCCCC1,0.89
same,photoluminescence quantum yield,in CC#N,0.86
same,photoluminescence quantum yield,in CC(C)O,0.96
same,photoluminescence quantum yield,in CO,0.84
same,photoluminescence quantum yield,in CS(C)=O,0.98
same,photoluminescence quantum yield,in ClC(Cl)Cl,0.96
same,photoluminescence quantum yield,in c1ccccc1,0.85
COc1ccc(/C=C/c2cc(/C=C/c3ccc(OC)cc3)nc(/C=C/c3ccc4cc(OC)ccc4c3)n2)cc1,photoluminescence quantum yield,in ClCCl,0.11
CCOC(=O)c1c2c3c(ccc(F)c3c3cc4c(cc13)[Si](C)(C)O[Si]4(C)C)N(C)C2=O,photoluminescence quantum yield,in CC#N,0.47
FC(F)(F)c1ccc(C#Cc2ncc(-c3ccccc3)o2)cc1,photoluminescence quantum yield,in ClCCl,0.24
c1ccc(N(c2ccccc2)c2ccc(-c3cnc(-c4ccc(N(c5ccccc5)c5ccccc5)cc4)s3)cc2)cc1,photoluminescence quantum yield,in CO,0.41
CCn1c2ccc(/C=C/c3ccc4c(c3)c3cc(-c5nc6ccccc6s5)ccc3n4CC)cc2c2cc(-c3nc4ccccc4s3)ccc21,photoluminescence quantum yield,in C1CCOC1,0.65
same,photoluminescence quantum yield,in CC#N,0.26
same,photoluminescence quantum yield,in CCOC(C)=O,0.58
same,photoluminescence quantum yield,in CN(C)C=O,0.32
same,photoluminescence quantum yield,in ClCCl,0.5
N#Cc1cc(C#Cc2c(F)c(F)nc(F)c2F)c(C#Cc2c(F)c(F)nc(F)c2F)cc1C#N,photoluminescence quantum yield,in CC#N,0.49
CCCCN(CCCC)c1ccc(C#Cc2cc(C#Cc3ccc(C(F)(F)F)cc3)c(C#Cc3ccc(N(CCCC)CCCC)cc3)cc2C#Cc2ccc(C(F)(F)F)cc2)cc1,photoluminescence quantum yield,in ClCCl,0.5
O=Cc1nc2ccc(C#Cc3ccc(N(c4ccccc4)c4ccccc4)cc3)cc2s1,photoluminescence quantum yield,in Cc1ccccc1,0.57
COc1ccc(/C=C/c2cc(/C=C/c3ccc(OC)cc3)nc(/C=C/c3ccc(OC)cc3)n2)cc1,photoluminescence quantum yield,in ClCCl,0.15
CCN(CC)c1ccc2c(-c3ccccc3C(=O)O)c3c([o+]c2c1)/C(=C/c1ccc(N(C)C)cc1)CCC3,photoluminescence quantum yield,in ClCCl,0.04
COC(=O)[C@@]12N=N[C@@](C(=O)OC)(C3[C@H]1C3(C)C)[C@H]1[C@@H]2C1(C)C (stereo partly drawn),photoluminescence quantum yield,in CC#N,0.041
COc1ccc2c(c1)[n+]([O-])nc(N)[n+]2[O-],photoluminescence quantum yield,in CC#N,0.0227
same,photoluminescence quantum yield,in O,0.0124
CCCCCCc1ccc(/C=C/c2ccc(CCCCCC)s2)s1,photoluminescence quantum yield,in Cc1ccccc1,0.051
COCCOc1ccc(OCCOC)c(C=O)c1,photoluminescence quantum yield,in CC(C)(C)O,0.13
same,photoluminescence quantum yield,in CC(C)CO,0.21
same,photoluminescence quantum yield,in CC(C)O,0.21
same,photoluminescence quantum yield,in CCCCO,0.23
same,photoluminescence quantum yield,in CCCO,0.25
same,photoluminescence quantum yield,in CCO,0.2
same,photoluminescence quantum yield,in CN(C)C=O,0.03
same,photoluminescence quantum yield,in CNC=O,0.14
same,photoluminescence quantum yield,in CO,0.24
same,photoluminescence quantum yield,in NC=O,0.44
same,photoluminescence quantum yield,in O,0.11
COc1ccc(N(c2ccc(/C=C(\C)c3ccccc3)cc2)c2ccc(OC)cc2)cc1,photoluminescence quantum yield,in Cc1ccccc1,0.41
C(#Cc1nc(C#Cc2cccs2)c(C#Cc2cccs2)c(C#Cc2cccs2)c1C#Cc1cccs1)c1cccs1,photoluminescence quantum yield,in ClCCl,0.48
CC(C)[Si](C#Cc1c2ccccc2c(C#Cc2c3ccccc3c(C#Cc3c4ccccc4c(C#Cc4c5ccccc5c(C#Cc5c6ccccc6c(C#C[Si](C(C)C)(C(C)C)C(C)C)c6ccccc56)c5ccccc45)c4ccccc34)c3ccccc23)c2ccccc12)(C(C)C)C(C)C,photoluminescence quantum yield,in Cc1ccccc1,0.018
CCCCCCCCCCCCOc1cc(C(=O)Nc2ccc(-c3ccc4c(c3)C(=O)c3cc(-c5ccc(NC(=O)c6cc(OCCCCCCCCCCCC)c(OCCCCCCCCCCCC)c(OCCCCCCCCCCCC)c6)cc5)ccc3-4)cc2)cc(OCCCCCCCCCCCC)c1OCCCCCCCCCCCC,photoluminescence quantum yield,in C1CCOC1,0.06
COc1ccccc1-c1nc(-c2ccccc2)c(-c2ccccc2)[nH]1,photoluminescence quantum yield,in CO,0.29
CN(C)CCN(Cc1c2ccccc2c(CN(CCN(C)C)c2ccc([N+](=O)[O-])cc2[N+](=O)[O-])c2ccccc12)c1ccc([N+](=O)[O-])cc1[N+](=O)[O-],photoluminescence quantum yield,in C1CCOC1,0.0052
same,photoluminescence quantum yield,in CC#N,0.00153
same,photoluminescence quantum yield,in CC(C)=O,0.0012
same,photoluminescence quantum yield,in CCO,0.0136
same,photoluminescence quantum yield,in CN(C)C=O,0.00067
same,photoluminescence quantum yield,in CO,0.0387
CCN(CC)c1ccc(/C=N/c2cc3nc4ccccc4nc3cc2/N=C/c2ccc(N(CC)CC)cc2O)c(O)c1,photoluminescence quantum yield,in CC#N,0.21
CCCN1c2ccccc2Sc2cc(/C=C\c3cc(=O)oc4ccccc34)ccc21,photoluminescence quantum yield,in ClC(Cl)Cl,0.5
O=[N+]([O-])c1ccc(C#Cc2ccc3ccc(C#Cc4ccc([N+](=O)[O-])cc4)cc3c2)cc1,photoluminescence quantum yield,in ClCCl,0.007
COc1ccc(C2=C(c3ccc(OC)cc3)C(c3ccc(OC)cc3)=[N+]3C2=C(c2ccc(OC)cc2)c2c(-c4ccc(OC)cc4)c(-c4ccc(OC)cc4)c(-c4ccc(OC)cc4)n2[B-]3(F)F)cc1,photoluminescence quantum yield,in C1CCOC1,0.26
Nc1ccc(/C=C/c2ccccc2)cc1,photoluminescence quantum yield,in CC#N,0.03
same,photoluminescence quantum yield,in CCCCCC,0.03
C(=C\c1ccc(Nc2ccccc2)cc1)/c1ccccc1,photoluminescence quantum yield,in CC#N,0.3
same,photoluminescence quantum yield,in CCCCCC,0.51
c1ccc(C2c3ccccc3-c3ccccc32)cc1,photoluminescence quantum yield,in CCO,0.19
CC(=O)c1c(N[C@@H](CS)C(=O)O)c2ccc(N(C)C)cc2oc1=O,photoluminescence quantum yield,in ClCCl,0.0025
CCn1c2ccccc2c2c(C#N)c3c(ccc4c3cnn4C)nc21,photoluminescence quantum yield,in CCOC(C)=O,0.45
CC1(C)c2cc(/C=C/c3nc(/C=C/c4ccc5c(c4)C(C)(C)c4cc(N(c6ccccc6)c6ccc7ccccc7c6)ccc4-5)nc(/C=C/c4ccc5c(c4)C(C)(C)c4cc(N(c6ccccc6)c6ccc7ccccc7c6)ccc4-5)n3)ccc2-c2ccc(N(c3ccccc3)c3ccc4ccccc4c3)cc21,photoluminescence quantum yield,in Cc1ccccc1,0.25
C1=Nc2cccc3cccc(c23)N1,photoluminescence quantum yield,in CC#N,0.0013
same,photoluminescence quantum yield,in CO,0.0005
same,photoluminescence quantum yield,in CS(C)=O,0.0031
same,photoluminescence quantum yield,in Cc1ccccc1,0.005
CCN(CC)c1ccc2cc(-c3cn4cc(OC)ccc4n3)c(=O)oc2c1,photoluminescence quantum yield,in ClC(Cl)Cl,0.9
c1ccc(-c2nc(-c3ccccc3)n3ccccc23)cc1,photoluminescence quantum yield,in ClC(Cl)Cl,0.14
same,photoluminescence quantum yield,in ClCCl,0.217
c1ccc(-c2cc(-c3ccc(N4c5ccccc5C5(c6ccccc64)c4ccccc4N(c4ccc(-c6cc(-c7ccccc7)nc(-c7ccccc7)n6)cc4)c4ccccc45)cc3)nc(-c3ccccc3)n2)cc1,photoluminescence quantum yield,in O=P(c1ccccc1)(c1ccccc1)c1ccccc1Oc1ccccc1P(=O)(c1ccccc1)c1ccccc1,0.73
c1ccc(-c2nc(-c3ccccc3)nc(-c3cc(-n4c5ccccc5c5ccccc54)c(-n4c5ccccc5c5ncccc54)c(-n4c5ccccc5c5ccccc54)c3)n2)cc1,photoluminescence quantum yield,in O=P(c1ccccc1)(c1ccccc1)c1ccc2oc3ccc(P(=O)(c4ccccc4)c4ccccc4)cc3c2c1,0.79
CCC(C)(C)c1ccc2c(c1)C(CCOC)(CCOC)c1cc(-c3ccc(-c4ccc5c(c4)C(CCOC)(CCOC)c4cc(C(C)(C)CC)ccc4-5)cc3)ccc1-2,photoluminescence quantum yield,in C1CCCCC1,0.9
COc1cccc(OC)c1C1=C2C(C)=CC(C)=[N+]2[B-](F)(F)n2c(C)cc(C)c21,photoluminescence quantum yield,in C1CCOC1,0.64
same,photoluminescence quantum yield,in CC#N,0.54
same,photoluminescence quantum yield,in CC(=O)C(C)(C)C,0.64
same,photoluminescence quantum yield,in CC(C)=O,0.72
same,photoluminescence quantum yield,in CCCCCC,0.71
same,photoluminescence quantum yield,in CCOC(C)=O,0.47
same,photoluminescence quantum yield,in CO,0.58
N#CC(C#N)=Cc1ccc(-c2cccc(-c3nc4ccccc4s3)c2O)s1,photoluminescence quantum yield,in CCO,0.0956
same,photoluminescence quantum yield,in ClCCl,0.152
same,photoluminescence quantum yield,in O,0.01
COc1cc(/C=C/c2nc3ccccc3s2)c(OC)cc1/C=C/c1nc(C)nc(/C=C/c2cc(OC)c(/C=C/c3nc4ccccc4s3)cc2OC)n1,photoluminescence quantum yield,in C1CCOC1,0.54
same,photoluminescence quantum yield,in CC#N,0.03
same,photoluminescence quantum yield,in ClC(Cl)Cl,0.5
same,photoluminescence quantum yield,in ClCCl,0.46
C(#Cc1c2ccccc2c(-c2ccccc2)c2cc3ccccc3cc12)c1ccccc1,photoluminescence quantum yield,in ClCCl,0.79
COc1ccc(C2=Cc3c4ccccc4c4ccccc4[n+]3[B-](F)(F)O2)cc1,photoluminescence quantum yield,in ClC(Cl)Cl,0.678
O=[N+]([O-])c1ccc([N+]2=Cc3ccc4ccccc4c3O[B-]2(F)F)cc1,photoluminescence quantum yield,in ClCCl,0.9
c1ccc(C2=Nc3cccc4[n+]3[B-](c3ccccc3)(N2)NC(c2ccccc2)=N4)cc1,photoluminescence quantum yield,in ClCCl,0.13
CN(C)c1ccc2nc(-c3ccc(C(=O)OC(C)(C)C)cc3)sc2c1,photoluminescence quantum yield,in C1CCCCC1,0.84
same,photoluminescence quantum yield,in CC#N,0.81
same,photoluminescence quantum yield,in CC(C)O,0.84
same,photoluminescence quantum yield,in CO,0.72
same,photoluminescence quantum yield,in CS(C)=O,0.91
same,photoluminescence quantum yield,in ClC(Cl)Cl,0.87
same,photoluminescence quantum yield,in c1ccccc1,0.85
N#CC(C#N)=Cc1ccc(-c2ccc(O)c(-c3nc4ccccc4s3)c2)o1,photoluminescence quantum yield,in CCO,0.0357
same,photoluminescence quantum yield,in ClCCl,0.016
Cc1ccccc1C1=C2C=CC(=[N+](C)C)C=[C]2[Ge]([CH3])([CH3])[c]2cc(N(C)C)ccc21,photoluminescence quantum yield,in O,0.34
F[B-]1(F)OC(c2ccccc2)=Cc2ccc3ccccc3[n+]21,photoluminescence quantum yield,in ClC(Cl)Cl,0.53
same,photoluminescence quantum yield,in ClCCl,0.57
CNC(=O)[C@H](C)NC(=O)c1cccc2c1C#Cc1c(NC(=O)[C@@H](NC(C)=O)C(C)C)cccc1OCCCO2,photoluminescence quantum yield,in CC#N,0.02
same,photoluminescence quantum yield,in ClCCl,0.03
F[B-]1(F)N2C=CN=CC2=[N+]2[N+]1=Cc1c(-c3ccccc3)cc(-c3ccccc3)n1[B-]2(F)F,photoluminescence quantum yield,in ClCCl,0.49
COc1ccc(-c2csc(/C(C#N)=C/c3ccncc3)n2)cc1,photoluminescence quantum yield,in CC#N,0.04
same,photoluminescence quantum yield,in CCO,0.002
same,photoluminescence quantum yield,in CN(C)C=O,0.016
same,photoluminescence quantum yield,in CS(C)=O,0.038
same,photoluminescence quantum yield,in Cc1ccccc1,0.285
same,photoluminescence quantum yield,in ClCCl,0.129
Cc1ccc(C2CC(c3ccc(O)cc3)=NN2c2ccc(S(N)(=O)=O)cc2)cc1 (stereo not drawn),photoluminescence quantum yield,in C1CCOC1,0.7
same,photoluminescence quantum yield,in C1COCCO1,0.73
same,photoluminescence quantum yield,in CC#N,0.64
same,photoluminescence quantum yield,in CC(C)O,0.5
same,photoluminescence quantum yield,in CCO,0.43
same,photoluminescence quantum yield,in CCOC(C)=O,0.68
same,photoluminescence quantum yield,in CN(C)C=O,0.76
same,photoluminescence quantum yield,in CO,0.33
same,photoluminescence quantum yield,in CS(C)=O,0.82
same,photoluminescence quantum yield,in O,0.55
Cc1cc(=O)oc2cc3c4ccccc4c4ccccc4c3cc12,photoluminescence quantum yield,in CO,0.09
same,photoluminescence quantum yield,in ClC(Cl)Cl,0.12
